How the values were obtained:
osteoclasts = test: Assay of bone resorption of osteoclast; format: cell-based, rat; conditions: 3-day incubation after removal of M-CSF and sRANKL, versus control
Procedure: Assay of bone resorption of osteoclast: Osteoclast precursors were isolated from rat long bones as mentioned above. The cells were re-suspended in a complete DMEM medium and plated into a calcium phosphate apatite-coated 24-well plate, OAAS (Oscotec, OCT USA Inc.) at 1×10^6 cells/0.5 ml/well. The cells were cultured for 5 days in the presence of M-CSF (20 ng/ml) plus sRANKL (50 ng/ml). Indazole 1 was injected daily for additional 3 days in the absence of M-CSF and sRANKL. Culture was terminated on day 8 and the remaining cells in the plate were lysed using 1 N NaOH. Five images per well were obtained using an inverted microscope (200×), and resorbed area was measured using an image analyzer. Local injection Male SD rats weighing 70–88 gm were used. Implantation of a cannula (22G) was done from the posteriolateral side into the proximal tibial metaphysis in both limbs of rats anesthetized with pentobarbital. The cannula had its outer end in the subcutaneous tissue. Indazole 1 was percutaneously injected through the cannula into the proximal tibia once/day for 1 week. The same concentration of DMSO diluted with normal saline was injected into the right side for comparison. On day 14, the rats were sacrificed and tibiae were fixed in 10% formaldehyde for 48 h at 4° C. The effect of Indazole 1 on resorption activity of osteoclasts was also examined. […]

Osteoblasts = test: Assay of cell proliferation (BrdU incorporation); format: cell-based, rat
Procedure: Primary osteoblast cultures: Primary osteoblast cells were prepared from calvaria of 18-day-old fetal Sprague-Dawley (SD) rats according to the following method: Pregnant rats were put in anesthesia using intraperitoneal injection of trichloroacetaldehyde (200 mg/kg). The calvaria of the fetal rats were then dissected with aseptic technique. Soft tissues were removed under a dissecting microscope. The calvaria were divided into small pieces and then treated with 0.1% collagenase (Sigma Chemical, St. Louis, Mo.) solution for 10 minutes at 37° C. The cells released from the calvariae by two 20-minute sequential collagenase digestions were pooled and filtered through 70 μm nylon filters (Falcon, BD BioSciences, San Jose, Calif.). The cells were then grown on plastic cell culture dishes in 95:5 air-CO2 with Dulbecco's modified Eagle's medium (DMEM) (Gibco, Grand Island, N.Y.) which was supplemented with 20 mM HEPES and 10% heat-inactivated FCS, 2 mM-glutamine, penicillin (100 U/ml) and streptomycin (100 μg/ml) (pH adjusted to 7.6). The cell medium was changed twice a week. Osteoblasts were confirmed by morphology and expression of alkaline phosphatase (ALP). […] BrdU incorporation was assayed according to the protocol of enzyme-linked immunosorbent assay chemiluminescence detection kit (Roche Molecular Biochemicals) using a luminescence counter (TopCount; Packard Instruments, Meriden, Conn.). […]

Male SD rats = test: Local injection into proximal tibia, bone histomorphometry (bone growth); format: in vivo, rat
Procedure: Assay of bone resorption of osteoclast: Osteoclast precursors were isolated from rat long bones as mentioned above. The cells were re-suspended in a complete DMEM medium and plated into a calcium phosphate apatite-coated 24-well plate, OAAS (Oscotec, OCT USA Inc.) at 1×10^6 cells/0.5 ml/well. The cells were cultured for 5 days in the presence of M-CSF (20 ng/ml) plus sRANKL (50 ng/ml). Indazole 1 was injected daily for additional 3 days in the absence of M-CSF and sRANKL. Culture was terminated on day 8 and the remaining cells in the plate were lysed using 1 N NaOH. Five images per well were obtained using an inverted microscope (200×), and resorbed area was measured using an image analyzer. Local injection Male SD rats weighing 70–88 gm were used. Implantation of a cannula (22G) was done from the posteriolateral side into the proximal tibial metaphysis in both limbs of rats anesthetized with pentobarbital. The cannula had its outer end in the subcutaneous tissue. Indazole 1 was percutaneously injected through the cannula into the proximal tibia once/day for 1 week. The same concentration of DMSO diluted with normal saline was injected into the right side for comparison. On day 14, the rats were sacrificed and tibiae were fixed in 10% formaldehyde for 48 h at 4° C. Bone histomorphometry: After formalin fixation of tibia was completed, the tibiae were then decalcified in 0.5 N hydrochloric acid, dehydrated in an ascending series of ethanol solution and acetone, and embedded in paraffin. Serial sections (5 μm) were cut longitudinally and stained with Mayer's hematoxylin-eosin solution (Yang et al. (1993) Calcif Tissue Int 52:57–61). Images of the growth plate and proximal tibia were photographed using a photoMicroGraphic Digitize integrate System (MGDS; Total-Integra Technology Co., Ltd., Taipei, Taiwan). Bone volume measurements were performed on the whole secondary spongiosa, which is located under the primary spongiosa and characterized by a network of larger trabeculae. Bone volumes were calculated using an image analysis software. All measurements were done in a single-blind fashion. Bone growth: Male young rats (SD) weighing 70–90 gm were divided into six groups. The average weight of the rats in each group was 73.9±1.1 gm. Indazole 1 was dissolved in DMSO and diluted with saline to a final concentration of 10 μM. One of the six groups was a control group, and the other groups were punctuated with a needle cannula alone, injected with a vehicle using a needle cannula (day 1, once), injected with Indazole 1 (day 1, once), injected with a vehicle using a needle cannula (days 1–7, daily), and injected with Indazole 1 (days 1–7, daily), respectively. […] Trabecular bone in the secondary spongiosa increased by 90% after local injection of Indazole 1 for 7 days.

OCc1ccc(-c2nn(Cc3ccccc3)c3ccccc23)o1 [Indazole 1, 1-benzyl-3-(5′-hydroxymethyl-2′-furyl)-indazole]
resorption activity of osteoclasts (osteoclasts): significantly inhibited
proliferation of osteoblasts (Osteoblasts; 0.1 μM): 119.3 % of control
proliferation of osteoblasts (Osteoblasts; 1 μM): 126.1 % of control
effect on tibia length (Male SD rats; local injection): not significantly affected
Trabecular bone in the secondary spongiosa increased by (Male SD rats; local injection for 7 days): 90%
bone volume of the secondary spongiosa (Male SD rats; local injection into proximal tibia, 0.1 nmole, daily for 7 days, then 7 further days, young male rats): significantly increased
Tibia length (Male SD rats; local injection, n=9): 3.32±0.02 cm

Source: patent US7160916B2, “Method of increasing bone density or treating osteoporosis” (Yung Shin Pharmaceutical Ind. Co., Ltd., priority 2003, dated 2007)
